Test results as given in US20240197650A1, “Combination of Cinnamaldheyde and Eugenol with Antimycotic Activity” (priority 2021, published 2024).

Experiments:
[1] = tested on: Candida spp.; assay: Microdilution method MIC/MFC, 18 Candida spp. strains (distribution); type: cell-based; settings: 18 strains
Procedure: (§1) A total of eighteen strains belonging to Candida spp. (15 C. albicans, 2 C. glabrata and 1 C. lusitaniae) derived from a collection of vaginal strains isolated in CHROMAgar Candida (BD Italia SpA, Milan, Italy) were grown on Potato Dextrose Agar (Oxoid Thermofisher SpA, Milan, Italy) at 35° C. for 24 hours.
(§2) The antifungal activity of amphotericin B and of cinnamaldheyde and eugenol were tested with the microdilution method as reported by Bona et al. [Bona et al., Sensitivity of Candida albicans to essential oils: are they an alternative to antifungal agents? J Appl Microbiol. 2016 December, 121(6): 1530-1545] with small changes. All the 18 Candida spp strains were tested. For each isolated, the colonies deriving from cultures (24 hours) in PDA were diluted in saline up to a concentration of 2×10^3 CFU/ml (so obtaining a final concentration of 10 3CGU/ml). Cinnamaldehyde and eugenol were dissolved in DMSO (80% oil, 20% DMSO), then diluted in Sabouraud broth up to a concentration of 8% v/v (so obtaining a final concentration of 4% v/v). Then, in a 96-well microtiter plate ½ serial dilution of amphotericin B (range 32-0.032 μg/ml, for a final range of 16-0.016 μg/ml) and of the essential oils (range 8-0.004% v/v, for a final range of 4-0.002% v/v) were carried out. Each well was then injected with 100 μl of cell suspension. The negative control contained DMSO diluted in Sabouraud broth (at 2% v/v, for a final concentration of 1% v/v). […] Each experiment was carried out in duplicate. The Minimum Inhibitory Concentration (MIC) was determined as the concentration of the oils in the first well which is not cloudy. The Minimum Fungicidal Concentration (MFC) was determined as the lowest concentration of the oils, with the agar culture showing the complete absence of fungal growth. The determination of the amphotericin B MIC was carried out also according to the EUCAST guidelines (cutoff 1 μg/ml) [https://eucast.org/astoffungi/clinicalbreakpointsforantifungals], all the results being consistent.

[2] = tested on: C. glabrata; assay: Microdilution method MIC/MFC, C. glabrata strains; type: cell-based
Procedure: as §1, §2

[3] = tested on: L. acidophilus strain La-14; assay: Disk diffusion vs L. acidophilus; type: cell-based, Lactobacillus acidophilus; settings: 10 μl oil per disk; MRS agar, 37° C. 24 hours, anaerobiosis
Procedure: The antibacterial activity of cinnamaldheyde and eugenol vs L. acidophilus was studied by using the disk diffusion method (reading scheme as reported in FIG. 1) and the microdilution method (reading scheme as reported in FIG. 2). A L. acidophilus strain named La-14 (Danisco SpA, Milan, Italy) was tested.
Colonies deriving from a 24-hour culture in DeManRogosaSharpe agar (MRS, OXOID SpA, Milan, Italy) were suspended in saline up to a concentration corresponding to #0.5 McFarland. A total of 3 plates of MRS agar were seeded in 3 directions to produce a confluent growth, by sterile swab soaked in the bacterial suspension. Sorbent paper disks 6.0 mm diameter were placed on each plate and soaked with 10 μl of each oil. Disks soaked with […] pure DMSO were used as negative control. The plates were incubated at 37° C. for 24 hours in anaerobiosis (anaerogen gaspack, OXOID SpA, Milan, Italy). The experiment was carried out in duplicate.

[4] = tested on: L. acidophilus strain La-14; assay: Microdilution vs L. acidophilus; type: cell-based, Lactobacillus acidophilus; settings: for MIC vs L. acidophilus: MRS broth, 37° C. 48 hours, anaerobiosis; for MIC vs L. acidophilus relative to the observed maximum MIC vs Candida spp: maximum MIC in 2 strains out of 18 only
Procedure: The antibacterial activity of […] eugenol vs L. acidophilus was studied by using the disk diffusion method (reading scheme as reported in FIG. 1) and the microdilution method (reading scheme as reported in FIG. 2). A L. acidophilus strain named La-14 (Danisco SpA, Milan, Italy) was tested. The essential oils (80% oil, 20% DMSO) were dissolved in MRS broth up to a concentration of 8% v/v (so obtaining a final concentration of 4% v/v). In a 96-well microtiter plate, 1⁄2 serial dilutions of the oils were carried out (volume: 100 μl. […] Each well was then injected with 100 μl of the cell suspension. The microtiter plates were incubated at 37° C. for 48 hours in anaerobiosis. MIC was determined as the concentration of the oils in the first well which is not cloudy. The experiment was carried out in duplicate.

[5] = tested on: C. albicans strain (C.a. 15); assay: Time-kill curve; type: cell-based; settings: oil at its MFC, 2×10^5 CFU/ml C.a. 15, 35° C.
Procedure: A C. albicans strain (C.a. 15) was incubated with cinnamaldheyde and eugenol at their MFC. The C. albicans colonies were suspended in Sabouraud broth at a density corresponding to #1.4 McFarland (4×10^6 CFU/ml), then diluted 1/10 (4×10^5 CFU/ml, for a final concentration of 2×10^5 CFU/ml). The suspension was divided into aliquots, two aliquots were incubated with the oils (½ v/v) prepared at a concentration double of their MFC (for a final concentration equal to MFC); the third aliquot was diluted ½ with Sabouraud broth and was used as negative control. The mixtures were incubated at 35° C. on swinging plate. At T0, T1 h, T2 h, T4 h, T6 h, T8 h, T12 h and T24 h, 1/10 serial dilutions were carried out, to determine the total vital count (TVC). From each dilution, 100 μl were seeded in PDA and incubated at 35° C. for 24 hours, then the colonies were counted, their number expressed as CFU/ml. The test was carried out in duplicate.

| SMILES | MFC average [1] [% v/v] | MIC average [1] [% v/v] | MFC ([2]; C. glabrata 1) [% v/v] | MIC ([2]; C. glabrata 1) [% v/v] | MFC ([2]; C. glabrata 2) [% v/v] | MIC ([2]; C. glabrata 2) [% v/v] | inhibition ring diameter [3] | MIC vs L. acidophilus relative to the average MIC vs Candida spp [4] | MIC vs L. acidophilus [4] [% v/v] | MIC vs L. acidophilus relative to the observed maximum MIC vs Candida spp [4] | time to kill all the fungal cells [5] | time to kill all the fungal cells ([5]; listed as eugenol) [h] |
| --- | --- | --- | --- | --- | --- | --- | --- | --- | --- | --- | --- | --- |
| O=CC=Cc1ccccc1 [Cinnamaldheyde, cinnamaldehyde] | 0.01 | 0.0048 | 0.008 | 0.004 | 0.016 | 0.016 | 10 mm | about 6.7 fold | 0.032 | double |  |  |
| C=CCc1ccc(O)c(OC)c1 [Eugenol, eugenol] | 0.067 | 0.043 | 0.032 | 0.032 | 0.125 | 0.125 | did not produced any inhibition ring | about 6 fold | 0.25 | double | within the first hour | 1 |
